In article PMC11938014, “Development and Application of Small Molecule–Peptide Conjugates as Cathepsin K-Specific Covalent Irreversible Inhibitors in Human Osteoclast and Lung Cancer” (JACS Au, 2025):
Like-named read-outs stand apart in the source and are kept apart here.

Assays:
Experiment in all cases: Recombinant cathepsin inhibition, gel-based competition with GB123 probe
Assay type in all cases: biochemical
[1] = target: T1, Recombinant human cathepsin L (Homo sapiens, UniProt P07711)
T1 construct: made in house
T1 sequence (P07711 114-333): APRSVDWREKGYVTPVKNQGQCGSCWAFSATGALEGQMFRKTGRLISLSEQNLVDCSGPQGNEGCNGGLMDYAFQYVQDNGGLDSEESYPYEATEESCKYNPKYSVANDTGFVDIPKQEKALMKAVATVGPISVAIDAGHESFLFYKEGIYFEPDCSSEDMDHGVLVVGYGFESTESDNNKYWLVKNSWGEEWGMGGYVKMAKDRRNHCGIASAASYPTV
Method: (§1) In-gel fluorescence analysis was used to detect the residual activity of the cathepsins by applying pan-cathepsin probe GB123 to detect the stable enzyme–probe complex. This approach is used for testing inhibition and selectivity.[37],[41]
(§2) Recombinant human cathepsin L (0.5 μM), cathepsin B (0.5 μM), cathepsin K (0.5 μM), and cathepsin S (0.5 μM) were pretreated with different concentrations of inhibitors (GD compounds, odanacatib) for 1 h in reaction buffer (50 mM acetate, 2 mM dithiothreitol (DTT), and 5 mM MgCl2, pH 5.5) at 37 °C. GB123 (1 μM) was added and incubated with samples for 60 min at 37 °C.[37],[41] The reaction was stopped by the addition of sample buffer 4× (40% glycerol, 0.2 M Tris/HCl pH 6.8, 20% β-mercaptoethanol, 12% SDS, and 0.4 mg/mL bromophenol blue). Samples were then boiled, separated on a 12.5% SDS gel, and scanned for fluorescence by a Typhoon scanner FLA 9500 at excitation and emission wavelengths of 635 and 670 nm for GB123.
(§3) graphs were generated in GraphPad Prism software.

[2] = target: T2, Recombinant human cathepsin B (Homo sapiens, UniProt P07858)
T2 construct: made in house
Method: as §1, §2, §3

[3] = target: T3, Recombinant human cathepsin K (Homo sapiens, UniProt P43235); conditions: for loss of potency compared to GD20: diastereomers of GD20 with D amino acids
T3 construct: made in house
T3 sequence (P43235 115-329): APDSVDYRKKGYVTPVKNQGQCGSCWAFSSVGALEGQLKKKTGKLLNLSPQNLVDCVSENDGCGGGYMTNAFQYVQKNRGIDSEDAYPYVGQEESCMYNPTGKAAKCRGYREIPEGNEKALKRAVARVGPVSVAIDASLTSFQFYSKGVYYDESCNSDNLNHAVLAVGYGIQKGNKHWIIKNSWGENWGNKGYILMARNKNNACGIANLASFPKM
Method: as §1, §2, §3

[4] = Table S2, three independent competition gel-based experiments, read-out: CTSL (IC50)
[5] = Table S2, three independent competition gel-based experiments, read-out: CTSB (IC50)
[6] = Table S2, three independent competition gel-based experiments, read-out: CTSK (IC50)

Row | IC50 [1, 4] | IC50 [2, 5] | IC50 [3, 6] | IC50 ([1]; Figure 1, gel-based GB123 competition, read-out: Activity [μM] CTSL (IC50)) | loss of potency compared to GD20 [3] | IC50 ([2]; Figure 1, gel-based GB123 competition, read-out: Activity [μM] CTSB (IC50)) | IC50 ([3]; Figure 1, gel-based GB123 competition, read-out: Activity [μM] CTSK (IC50)) | SMILES
1 | > 20 µM | 0.24 ± 0.1 µM | 0.9 ± 0.1 µM | – | – | – | – | CC(C)C[C@H](N[C@@H](c1ccc(-c2ccc(S(=O)(=O)NC(=O)OC(C)(C)C)cc2)cc1)C(F)(F)F)C(=O)NCC(=O)COC(=O)[C@@H]1CCCN1C(=O)[C@H](CC(C)C)NC(=O)OCC1c2ccccc2-c2ccccc21 [GD31]
2 | 2 ± 0.15 µM | > 5 µM | 5.5 ± 1 µM | > 5 µM | – | – | – | NCCCC[C@H](NC(=O)[C@@H]1CCCN1C(=O)CNC(=O)OCc1ccccc1)C(=O)CSc1c(F)c(F)cc(F)c1F [GD15]
3 | > 5 µM | 0.8 ± 0.25 µM | 0.3 ± 0.03 µM | – | – | – | – | NCCCC[C@H](NC(=O)[C@@H]1CCCN1C(=O)CNC(=O)OCc1ccccc1)C(=O)COc1c(F)c(F)cc(F)c1F [GD14]
4 | 4.4 ± 0.8 µM | > 20 µM | > 20 µM | – | – | – | – | C#CCNC(=O)[C@H](CC(C)C)N[C@@H](c1ccc(-c2ccc(S(=O)(=O)NC(=O)OC(C)(C)C)cc2)cc1)C(F)(F)F [GD33]
5 | > 5 µM | > 5 µM | 1.2 ± 0.11 µM | – | – | – | – | O=C(CNC(=O)[C@@H]1CCCN1C(=O)CNC(=O)OCc1ccccc1)CSc1c(F)c(F)cc(F)c1F [GD17]
6 | > 5 µM | 6 ± 1.5 µM | 1.4 ± 0.2 µM | – | – | – | – | CC(C)C[C@H](N[C@@H](c1ccc(-c2ccc(NC(=O)OC(C)(C)C)cc2)cc1)C(F)(F)F)C(=O)NCC(=O)COC(=O)[C@@H]1CCCN1C(=O)[C@H](CC(C)C)NC(=O)OCC1c2ccccc2-c2ccccc21 [GD26]
7 | 3.6 ± 0.04 µM | 2.2 ± 0.35 µM | 0.68 ± 0.08 µM | – | – | – | – | CC(C)C[C@H](N[C@@H](c1ccc(-c2ccc(S(C)(=O)=O)cc2)cc1)C(F)(F)F)C(=O)NCC(=O)COc1c(F)c(F)cc(F)c1F [GD8]
8 | 1.6 ± 0.22 µM | 1 ± 0.13 µM | 0.8 ± 0.1 µM | – | – | – | – | Cc1cccc(C)c1C(=O)OCC(=O)[C@H](CCCCN)NC(=O)[C@H](CC(C)C)NC(=O)CNC(=O)OCc1ccccc1 [GD12]
9 | > 5 µM | 5 ± 0.1 µM | 0.9 ± 0.06 µM | – | – | – | – | CC(C)C[C@H](N[C@@H](c1ccc(-c2ccc(CCNC(=O)OC(C)(C)C)cc2)cc1)C(F)(F)F)C(=O)NCC(=O)COC(=O)[C@@H]1CCCN1C(=O)[C@H](CC(C)C)NC(=O)OCC1c2ccccc2-c2ccccc21 [GD34]
10 | 0.19 ± 0.1 µM | 0.66 ± 0.02 µM | 0.65 ± 0.01 µM | – | – | – | – | NCCCC[C@H](NC(=O)[C@H](Cc1ccccc1)NC(=O)OCc1ccccc1)C(=O)CSc1c(F)c(F)cc(F)c1F [GD10]
11 | > 5 µM | 2.8 ± 0.6 µM | 1.8 ± 0.25 µM | – | – | – | – | Cc1cccc(C)c1C(=O)OCC(=O)CNC(=O)[C@@H]1CCCN1C(=O)CNC(=O)OCc1ccccc1 [GD16]
12 | > 5 µM | 3.6 ± 0.03 µM | 0.66 ± 0.01 µM | – | – | – | – | Cc1cccc(C)c1C(=O)OCC(=O)CNC(=O)[C@H](CC(C)C)N[C@@H](c1ccc(-c2ccc(S(C)(=O)=O)cc2)cc1)C(F)(F)F [GD7]
13 | > 5 µM | 5.1 ± 0.55 µM | 0.5 ± 0.05 µM | – | – | – | – | CC(C)C[C@H](N[C@@H](c1ccc(-c2ccc(S(C)(=O)=O)cc2)cc1)C(F)(F)F)C(=O)NCC(=O)CSc1c(F)c(F)cc(F)c1F [GD9]
14 | – | – | 3.9 ± 0.7 µM | – | 4–9 times | – | – | CC(C)C[C@H](NC(=O)OCC1c2ccccc2-c2ccccc21)C(=O)N1CCC[C@H]1C(=O)OCC(=O)CNC(=O)[C@@H](CC(C)C)N[C@@H](c1ccc(-c2ccc(S(C)(=O)=O)cc2)cc1)C(F)(F)F [GD39]
15 | > 5 µM | > 5 µM | 1 ± 0.07 µM | – | – | – | – | CC(C)C[C@H](N[C@@H](c1ccc(-c2ccc(S(C)(=O)=O)cc2)cc1)C(F)(F)F)C(=O)NCC(=O)COC(=O)CNC(=O)OCC1c2ccccc2-c2ccccc21 [GD27]
16 | – | – | 3.5 ± 0.9 µM | – | 4–9 times | – | – | CC(C)C[C@H](NC(=O)OCC1c2ccccc2-c2ccccc21)C(=O)N1CCC[C@H]1C(=O)OCC(=O)CNC(=O)[C@@H](CC(C)C)N[C@H](c1ccc(-c2ccc(S(C)(=O)=O)cc2)cc1)C(F)(F)F [GD40]
17 | > 5 µM | > 5 µM | > 5 µM | – | – | – | – | CC(C)C[C@H](NC(=O)OCC1c2ccccc2-c2ccccc21)C(=O)N1CCC[C@H]1C(=O)OCC(=O)CNC(=O)[C@H](CC1CCCCC1)N[C@@H](c1ccc(-c2ccc(S(C)(=O)=O)cc2)cc1)C(F)(F)F [GD28]
18 | > 5 µM | 1.7 ± 0.35 µM | 1.6 ± 0.35 µM | – | – | – | – | Cc1cccc(C)c1C(=O)OCC(=O)CNC(=O)[C@H](CC(C)(C)F)N[C@@H](c1ccc(-c2ccc(NC(=O)OC(C)(C)C)cc2)cc1)C(F)(F)F [GD6]
19 | – | – | 3.5 ± 0.5 µM | – | 4–9 times | – | – | CC(C)C[C@H](N[C@H](c1ccc(-c2ccc(S(C)(=O)=O)cc2)cc1)C(F)(F)F)C(=O)NCC(=O)COC(=O)[C@@H]1CCCN1C(=O)[C@H](CC(C)C)NC(=O)OCC1c2ccccc2-c2ccccc21 [GD35]
20 | > 5 µM | 4 ± 0.15 µM | 2.7 ± 0.35 µM | – | – | 1.95 ± 0.35 µM | 3.6 ± 0.5 µM | Cc1cccc(C)c1C(=O)OCC(=O)[C@H](CCCCN)NC(=O)[C@@H]1CCCN1C(=O)CNC(=O)OCc1ccccc1 [GD13]
21 | 0.25 ± 0.04 µM | 0.4 ± 0.06 µM | 4.4 ± 0.9 µM | – | – | – | – | Cc1cccc(C)c1C(=O)OCC(=O)[C@H](CCCCN)NC(=O)[C@H](Cc1ccccc1)NC(=O)OCc1ccccc1 [GB111-NH2, reference compound]
22 | 1.6 ± 0.5 µM | > 5 µM | > 5 µM | – | – | – | – | CC(C)C[C@H](NC(=O)OCC1c2ccccc2-c2ccccc21)C(=O)N1CCC[C@H]1C(=O)OCC(=O)CNC(=O)[C@H](CCCCNC(=O)OC(C)(C)C)N[C@@H](c1ccc(-c2ccc(S(C)(=O)=O)cc2)cc1)C(F)(F)F [GD29]
